Laboratory results reported in patent publication US20260008760A1, “DIPEPTIDYL PEPTIDASE 1 INHIBITORS AND USES THEREOF” (Insmed Incorporated, priority 2024, published 2026).

How the values were obtained:
[1] = biological target: human DPP1 enzyme (Homo sapiens, UniProt P53634); test: Human DPP1 Enzyme Single-Point Percent Inhibition Testing (HL-60 lysate); type: biochemical; design: A crude lysate of HL-60 cells (ATCC; Manassas, VA) was used as a source of human DPP1 enzyme; host or cells: HL-60 cells (crude lysate); details: final compound concentration of 10 nM, 400 μM H-Gly-Arg-AMC, n = 1
Outline: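 Enzyme source was HL-60 cell lysate in MES pH 6.0 buffer with NaCl and DTT, pre-incubated 10 min at 37° C with 10 nM compound (final, 1% DMSO). Cleavage of 400 μM H-Gly-Arg-AMC was followed at 350/450 nm over 90 min at 37° C, and percent inhibition was taken against vehicle wells.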

[2] = biological target: DPP1 in HL-60 cells (Homo sapiens, UniProt P53634); test: DPP1 Cell Single-Point Percent Inhibition Testing; type: cell-based; design: host or cells: HL-60 cells; details: final compound concentration 5 nM, n = 1
Outline: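 HL-60 cells in unsupplemented RPMI preincubated 60 min at 37 °C with test article (5 nM final, 0.1% DMSO), then given cell-permeable H-Gly-Phe-AFC (100 μM final) for 30 min. Fluorescence at 400/505 nm; percent inhibition versus vehicle after subtracting cell-free background and 10 μM brensocatib non-specific signal.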

[3] = biological target: T1, active mouse DPP1 enzyme (Mus musculus, UniProt P97821); test: Mouse DPP1 Enzyme IC50 Assay; type: biochemical; details: active mouse DPP1 enzyme, H-Gly-Arg-AMC substrate, 10 minutes pre-incubation at 37° C., pH 5.5; average of n runs; read-out: Avg. IC50 (Mouse DPP1 enzyme IC50 value ranges)
T1 construct: Each subunit is composed of an N-terminal fragment, a heavy chain and a light chain; purchased R&D Systems
Outline: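 Recombinant active mouse DPP1 pre-incubated 10 min at 37 °C with compound in 50 mM MES pH 5.5, 50 mM NaCl, 5 mM DTT. H-Gly-Arg-AMC added to a final […], then cleavage followed for 90 min at 37 °C (fluorescence Ex/Em 350/450 nm). IC50 taken from a four-parameter logistic fit against the no-compound control.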

T1 sequence (P97821 25-134 limits assumed): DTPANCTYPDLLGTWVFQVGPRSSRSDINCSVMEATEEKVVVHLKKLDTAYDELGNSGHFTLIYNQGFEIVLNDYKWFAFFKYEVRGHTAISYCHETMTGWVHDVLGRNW
T1 sequence (P97821 231-393 limits assumed): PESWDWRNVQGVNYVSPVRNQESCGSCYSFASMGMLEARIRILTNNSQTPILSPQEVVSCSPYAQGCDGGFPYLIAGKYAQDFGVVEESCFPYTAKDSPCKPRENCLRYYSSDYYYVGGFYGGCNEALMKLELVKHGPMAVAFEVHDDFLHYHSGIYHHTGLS
T1 sequence (P97821 394-462 limits assumed): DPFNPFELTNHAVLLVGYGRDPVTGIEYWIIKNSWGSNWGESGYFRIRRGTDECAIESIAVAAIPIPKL
Chain of DPP1 in HL-60 cells (P53634 25-463): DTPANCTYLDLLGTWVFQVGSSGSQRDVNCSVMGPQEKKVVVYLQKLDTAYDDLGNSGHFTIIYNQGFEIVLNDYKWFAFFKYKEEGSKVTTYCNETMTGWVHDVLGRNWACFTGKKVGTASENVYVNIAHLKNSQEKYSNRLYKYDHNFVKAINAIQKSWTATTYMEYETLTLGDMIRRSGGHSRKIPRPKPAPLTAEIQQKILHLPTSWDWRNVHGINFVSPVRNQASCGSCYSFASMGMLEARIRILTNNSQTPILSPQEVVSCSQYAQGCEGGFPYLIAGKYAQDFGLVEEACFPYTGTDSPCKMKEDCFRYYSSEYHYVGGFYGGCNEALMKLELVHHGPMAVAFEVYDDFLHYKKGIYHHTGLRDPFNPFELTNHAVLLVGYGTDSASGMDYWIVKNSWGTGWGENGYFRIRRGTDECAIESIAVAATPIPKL
Chain of human DPP1 enzyme (P53634 25-463): as above

Question: What does the source list for N#C[C@H](Cc1ccc(-c2cnc3c(n2)CCCC3)cc1)NC(=O)[C@@H]1CNCCCO1 [Compound A11, (2S)—N-[(1S)-1-cyano-2-[4-(5,6,7,8-tetrahydroquinoxalin-2-yl)phenyl]ethyl]-1,4-oxazepane-2-carboxamide]?
Answer: inhibition at 0.01 µM [1]: ≤ 40%; inhibition at 0.005 µM [2]: ≤ 76.5%; IC50 [3]: > 20 nM

Question: How did the inhibition at 0.01 µM [1] turn out when CN1CCCC2(C1)C(=O)N(C)c1ccc(-c3ccc(C[C@@H](C#N)NC(=O)[C@@H]4CNCCCO4)cc3)cc12 (stereo partly drawn) [Compound 18, (2S)—N-[(1S)-1-cyano-2-(4-{1,1′-dimethyl-2-oxospiro[indole-3,3′-piperidin]-5-yl}phenyl)ethyl]-1,4-oxazepane-2-carboxamide] was run?
Answer: Its inhibition at 0.01 µM is ≤ 40%.

Question: And the inhibition at 0.005 µM [2]?
Answer: The inhibition at 0.005 µM was ≤ 76.5%.

Question: And the IC50 [3]?
Answer: The IC50 was > 20 nM.
